Experimental data taken from EP2604265A1, “P2x7 antagonists as frontline or adjunctive treatment against status epilepticus” (Royal College of Surgeons in Ireland (RCSI), priority 2011, dated 2013).

Experiments:
Adult male C57BL/6 mice [1] = experiment: Intra-amygdala KA-induced SE in mice, EEG, drug i.c.v. immediately prior to KA; type: in vivo; details: i.c.v. co-injection immediately prior to intra-amygdala KA; vs vehicle (antibody vs control IgG); lorazepam at 40 min
Description: (§1) Adult male C57BL/6 mice (20-25 g) were obtained from Harlan UK (Blackthorn, UK). Mice were first anesthetized using isoflurane (3-5%) and maintained normothermic by means of a feedback-controlled heat blanket (Harvard Apparatus Ltd, Kent, UK). Mice were next placed in a stereotaxic frame and three partial craniectomies performed to affix cortical skull-mounted EEG electrodes (Bilaney Consultants Ltd, Sevenoaks, UK). EEG was recorded using a Grass Comet XL digital EEG (Medivent Ltd, Lucan, Ireland). A guide cannula was affixed (coordinates from Bregma: AP = 0.94; L = 2.85 mm) and the assembly fixed in place with dental cement. Anesthesia was then discontinued and freely moving mice were placed inside a clear perspex recording chamber. EEG recordings were commenced and after establishing baseline EEG for a few minutes, an injection cannula was lowered through the guide cannula for injection of kainic acid (KA) (Ocean Produce International, Nova Scotia, Canada) into the basolateral amygdala nucleus (0.3 µg in 0.2 µl phosphate-buffered saline). Non-seizure control mice underwent the same surgical procedure but received 0.2 µl intra-amygdala vehicle. Mice were killed at different time-points (1, 4, 8 or 24 h) later and perfused with saline to remove intravascular blood components. Brains were either flash-frozen whole in 2-methylbutane at […] or perfused with 4% PFA for histopathology, or dissected on ice to obtain whole hippocampus or microdissected to obtain the different hippocampal subfields (CA1, DG and CA3).
Digitized EEG recordings were analyzed off-line using manual assessment and automated software. […] The duration of high-frequency (>5 Hz) high-amplitude (>2× baseline) polyspike discharges of ≥5 s duration (HAHFDs) was counted by a reviewer blind to treatment. Further EEG analysis was performed by uploading EEG into Labchart7 software (ADInstruments) to calculate the power spectral density (total power, a measure of the input signal's power (amplitude) over frequency) EEG spectrogram (spectral power against frequency and time).
All the following drugs were purchased from Sigma-Aldrich Ireland (Arklow, Ireland) and delivered by intracerebroventricular (i.c.v.) microinjection in 2 µl volume unless otherwise specified: Adenosine 5'-triphosphate (ATP) at 100 µM, Uridine-5'-triphosphate (UTP) at 100 µM, Uridine-5'-diphosphate (UDP) at 100 µM, 2-chloro-N6-cyclopentyladenosine (CCPA) 300 nM, Pyridoxal-phosphate-6-azophenyl-2,4-disulfonate (PPADS) at 50 µM, α,β- methylene- adenosine-5-triphosphate (α,β-meATP) at 0.1 nmol, 3-O-(4-benzoyl)benzyl-ATP (Bz-ATP) at 300 µM, Brillant Blue G (BBG) at 30 nM.
Lorazepam (Ativan®, Wyeth, Taplow, U.K.) (6 mg/kg) was administered intraperitoneally (i.p.) at 40 or 60 min after KA.
Next, a model of focal-onset SE was used to evaluate the contributions of ATP-gated receptors in vivo. Mice received intra-amygdala microinjection of KA to induce SE (Fig. 2C). […] The electroencephalogram (EEG) was recorded by using cranial electrodes (lower part of Fig. 2C). Seizures were curtailed after 40 min by the injection of lorazepam to minimize morbidity and mortality.

hippocampal neurons = experiment: Luciferine-luciferase luminescence assay of extracellular ATP release; type: cell-based, mouse; details: primary cultures; glutamate 100 µM; NEM 500 µM pre-treatment
Description: Hippocampal neurons were prepared as described previously (Diaz-Hernandez et al., 2008). Briefly, hippocampi were obtained from E17 mouse embryos and, after dissection and washing three times in Ca^2+/Mg^2+-free HBSS, tissue was digested in the same solution with 0.25% trypsin for 15 min at 37°C. Hippocampi were then washed three times in Ca^2+/Mg^2+-free HBSS and dissociated with a firepolished Pasteur pipette. Cells were counted, resuspended in plating medium (MEM, 10% fetal bovine serum, 0.6% glucose) and plated at a density of 5,000 cells/cm^2 on poly-L-lysine coated coverslips (1 mg/ml). After plating, neurons were cultured for 24-72 h in neuronal culture medium (Neurobasal, B-27, glutamax-I). For biochemical experiments, hippocampal neurons were plated on polylysine-coated (1 mg/ml) 60-mm plates at a density of 200,000 cells/cm^2, and cultured for 72 h in neuronal culture medium. AraC was added at a final concentration of 5 µM after 2 days in culture. Extracellular ATP concentration was measured as previously described (Diez-Zaera et al., 2011). Neurons were grown in 6-well plates at a density of 200,000 cells/cm^2. […] In some cases, ATP release was also measured in the presence of A-438079 (1 µM). ATP concentration was determined by comparison with a calibration curve generated with ATP standards diluted in the same buffer as the samples.

Adult male C57BL/6 mice [2] = experiment: Histopathology of ipsilateral hippocampal CA3 after SE (FJB and NeuN counts); type: in vivo; details: 24 h after SE; drug given prior to SE; vs vehicle
Description: as §1
Flash-frozen brains in 2-methylbutane were sectioned at -20°C on a Leica cryostat and 12 µm sections collected at the level of dorsal hippocampus (-1.8 mm and - 2.9 mm from Bregma according to a mouse stereotaxic atlas (Paxinos and Franklin, 2001). Neuronal death was assessed using Fluoro-Jade B (FJB) staining, as previously described (Engel et al., 2010; Murphy et al., 2010). Briefly, sections were air-dried and post-fixed in formalin followed by hydrating through graded alcohols. Sections were then rinsed in distilled water and transferred to 0.006% potassium permanganate solution for 15 min. Sections were rinsed again and transferred to a 0.001% FJB solution according to manufacturer's recommendations (Chemicon Europe Ltd, Chandlers Ford, UK). After staining, sections were mounted in DPX (Sigma-Aldrich). For NeuN immunohistochemistry, sections were fixed and permeabilized, blocked in goat serum and incubated overnight with anti-NeuN antibodies (Millipore Ireland B.V., Tullagreen, Ireland) followed by incubation with goat anti-rabbit IgG antibodies coupled to AlexaFluor 568 (BioSciences Limited, Dun Laoghaire, Ireland). Sections were examined using a Nikon 2000s epifluorescence microscope under Ex/Em wavelengths of 472/520 nm (green) and 540 to 580/600 to 660 nm (red) and images captured using a Hamamatsu Orca 285 camera. Cell counts were the average of two adjacent sections for the CA3 subfield under 40x lens magnification by an observer blinded to treatment.

[3] = in vivo; cited from earlier work
Adult male C57BL/6 mice [4] = experiment: Refractory SE model in mice, drugs given 60 min post-KA, EEG during the next hour; type: in vivo
Description: as §1
Digitized EEG recordings were analyzed off-line using manual assessment and automated software. The occurrence of high amplitude high frequency spiking during seizures is synonymous with injury-causing electrographic seizures during SE (also termed type IV electrographic seizures) (Lowenstein et al., 1991; Henshall et al., 2000). The duration of high-frequency (>5 Hz) high-amplitude (>2× baseline) polyspike discharges of ≥5 s duration (HAHFDs) was counted by a reviewer blind to treatment. Further EEG analysis was performed by uploading EEG into Labchart7 software (ADInstruments) to calculate the power spectral density (total power, a measure of the input signal's power (amplitude) over frequency) EEG spectrogram (spectral power against frequency and time).
A-438079 (3-[[5-(2,3-Dichlorophenyl)-1H-tetrazol-1-yl]methyl]pyridine hydrochloride) (50 µM) was from Tocris Biosciences (Bristol, U.K.) and the P2X7R specific antibody was from Alomone Labs (APR-008, Alomone Labs, Ltd, Jerusalem, Israel) and injected at 0.7 mg/ml. Lorazepam (Ativan®, Wyeth, Taplow, U.K.) (6 mg/kg) was administered intraperitoneally (i.p.) at 40 or 60 min after KA.
To model refractory SE, seizures were allowed to continue beyond the normal time when lorazepam is given (40 min) and instead the effects of drugs were recorded 60 min post-KA on the EEG during the next hour.

rat models = details: mifepristone before or after the onset of SE; cited from earlier work
neonatal seizures = details: in vivo; cited from earlier work

Q: Which “seizure time during SE (duration of HAHFDs)” value (“seizure time during SE” below) (Adult male C57BL/6 mice [1]) does the source give for `Nc1ncnc2c1ncn2[C@@H]1O[C@H](COP(=O)(O)OP(=O)(O)OP(=O)(O)O)[C@@H](O)[C@H]1O` [ATP, Adenosine 5'-triphosphate] here?
A: significantly increased

Q: Which “seizure time during SE” value (Adult male C57BL/6 mice [1]) does the source give for `Nc1ncnc2c1ncn2[C@@H]1O[C@H](COP(=O)(O)OP(=O)(O)OP(=O)(O)O)[C@@H](OC(=O)c2ccc(C(=O)c3ccccc3)cc2)[C@H]1O` [BzATP, 3-O-(4-benzoyl)benzyl-ATP] here?
A: significant increase of seizure time

Q: For `OC[C@H]1O[C@@H](n2cnc3c(NC4CCCC4)nc(Cl)nc32)[C@H](O)[C@@H]1O` [CCPA, 2-chloro-N6-cyclopentyladenosine], which “seizure time during SE” value (Adult male C57BL/6 mice [1]) is on record?
A: significantly reduced

Q: Which “ATP release from hippocampal neurons” value (hippocampal neurons) does the source give for `CCN1C(=O)C=CC1=O` [NEM, N-Ethylmaleimide] here?
A: ATP release was blocked

Q: With `Cc1nc(N=Nc2ccc(S(=O)(=O)O)cc2S(=O)(=O)O)c(COP(=O)(O)O)c(C=O)c1O` [PPADS, Pyridoxal-phosphate-6-azophenyl-2,4-disulfonate] as the molecule, how does the “seizure time during SE” value (Adult male C57BL/6 mice [1]) read?
A: only a weak, non-significant effect

Q: And the “Counts of surviving CA3 neurons (NeuN)” value (Adult male C57BL/6 mice [2])?
A: not protective

Q: What about the “FJB-positive cells within the CA3 subfield (neuronal death)” value (Adult male C57BL/6 mice [2]) of the same molecule?
A: did not afford protection

Q: Which “seizure time during SE” value (Adult male C57BL/6 mice [1]) does the source give for `O=c1ccn([C@@H]2O[C@H](COP(=O)(O)OP(=O)(O)O)[C@@H](O)[C@H]2O)c(=O)[nH]1` [UDP, Uridine-5'-diphosphate] here?
A: no differences in seizure time

Q: For `O=c1ccn([C@@H]2O[C@H](COP(=O)(O)OP(=O)(O)OP(=O)(O)O)[C@@H](O)[C@H]2O)c(=O)[nH]1` [UTP, Uridine-5'-triphosphate], which “seizure time during SE” value (Adult male C57BL/6 mice [1]) is on record?
A: no differences in seizure time

Q: With `N[C@@H](CCC(=O)O)C(=O)O` [glutamate] as the molecule, how does the “ATP release from hippocampal neurons” value (hippocampal neurons) read?
A: induced the rapid release of ATP

Q: Which duration of action [3] does the source give for `O=C1Nc2ccc(Cl)cc2C(c2ccccc2Cl)=NC1O` (stereo not drawn) [lorazepam, Lorazepam] here?
A: 2 to 8 h

Q: What about the “total seizure time (duration of HAHFDs)” value (Adult male C57BL/6 mice [4]; given 60 min after KA, 60 min recording, vs vehicle) of the same molecule?
A: failed to significantly reduce

Q: And the “total seizure power (total EEG power)” value (Adult male C57BL/6 mice [4]; given 60 min after KA, vs vehicle)?
A: significant reduction

Q: And the “mice continued in SE” value (Adult male C57BL/6 mice [4]; given alone 60 min after KA, number of mice / group)?
A: 4/7

Q: What about the reduction in power (Adult male C57BL/6 mice [4]; total power analysis, Fig. 9C, given 60 min after KA, compared to Veh) of the same molecule?
A: ~50%

Q: Which efficiency of diazepam (rat models) does the source give for `CC#C[C@]1(O)CC[C@H]2[C@@H]3CCC4=CC(=O)CCC4=C3[C@@H](c3ccc(N(C)C)cc3)C[C@@]21C` [mifepristone] here?
A: increases efficiency of diazepam

Q: With `CCC1(c2ccccc2)C(=O)NC(=O)NC1=O` [phenobarbitone] as the molecule, how does the “cases in which neonatal seizures are not stopped” value (neonatal seizures) read?
A: over 50%

Q: Which “seizure time during SE” value (Adult male C57BL/6 mice [1]) does the source give for `Nc1ncnc2c1ncn2C1OC(COP(=O)(O)CP(=O)(O)OP(=O)(O)O)C(O)C1O` (stereo not drawn) [α/β-methylATP, α,β-methylene-adenosine-5-triphosphate] here?
A: no differences in seizure time
